“And” between values parts separate entries of the source, which are not always exact repeats. Identical values can stand only once.
System: 922993-354-T-J3-PDC complex spheroid viability
Experiment: Anticancer human tumor 922993-354-T-J3-PDC patient-derived endometrial carcinoma cell line growth inhibition [POLQ]
Settings: for viability, T/C: stronger effect = lower value
Protocol: Multicellular complex tumor spheroid response to Polymerase (POL) inhibitors (novobiocin, ART-558, RP6685) in combination with a variety of drugs and investigational agents in selected tumor cell lines
The POL inhibitors (novobiocin, ART-558, and RP6685) were evaluated both individually and in combination with standard of care and investigational anticancer small molecules within a complex spheroid model of solid tumors. . Complex spheroids include a stromal component modeled by human endothelial cells (HUVEC) and fibroblasts modeled by human mesenchymal stem cells (MSCs). The concentration ranges selected for each drug and investigational agent were based upon clinically achievable concentrations if the clinical Cmax of the agent was known.
Compounds. The drugs and investigational agents: novobiocin (NSC847541), ART-558 (NSC835418), RP-6685 (NSC848927), peposertib (NSC802822), ceralasertib (NSC780249), elimusertib (NSC800525), camonsertib (NSC841442), AZD-1390 (NSC803789), olaparib (NSC753686), talazoparib (NSC767125), rucaparib (NSC756644), sotorasib (NSC818433), MRTX-1133 (NSC836407), SN-38 (NSC673596), topotecan (NSC609699), epotoside (NSC141540), doxorubicin (NSC123127), gemcitabine (NSC613327), 5-fluorouracil (NSC19893), paclitaxel (NSC125973), vemurafenib (NSC761431), MSA-2 (NSC828583), SN-011 (NSC837082), adavosertib (NSC754352), prexasertib (NSC758257), carboplatin (NSC241240) and oxaliplatin (NSC266046), were obtained from the National Cancer Institute (NCI) Developmental Therapeutics Program Chemical Repository (21). The FDA-approved anticancer drug set is available from the Developmental Therapeutics Program at https://dtp.cancer.gov/organization/dscb/obtaining/. […] The stock solutions were prepared in dimethyl sulfoxide (DMSO, Sigma-Aldrich, St. Louis, MO, cat. D2650), except for the platinum compounds which were prepared in saline (Quality Biological, Gaithersburg, MD, cat. 114-055-101), at 800-fold the tested concentration and stored at -70 degrees C prior to their use. All drugs and investigational agents were tested over a range starting from a high concentration at or near the clinical Cmax and decreasing in half-log increments. If the clinical Cmax for an agent had not been determined, the highest concentration tested was 10 microM, except for SN-38, which was tested at a high concentration of 1 microM.
Cell Culture. All cells were maintained in an incubator at 37 degrees C and 5% CO2 with 95% humidity. The PDC lines were cultured according to standard operating procedures established by the NCI PDMR (https://pdmr.cancer.gov). Table 3 of the manuscript, lists the cell lines along with the number of the three cell types plated to form the mct-spheroids and media for tumor cell growth. After thawing, all PDC lines, except 997537-175-T-J1-PDC and 415267-285-R-J2-PDC, were cultured in Matrigel-coated flasks prepared with a working solution of 1X Ham's F-12 nutrient mix, without supplementation (Thermo Fisher Scientific, cat. 11765054), 100 U/mL penicillin-streptomycin (Thermo Fisher Scientific, cat. 15140122), and 2.5% Matrigel (Corning Inc., Corning, NY, cat. 354248) for the first three passages. The two PDC lines 997537-175-T-J1-PDC and 415267-285-R-J2-PDC were cultured on uncoated flasks. The 857933-349-R-J2-PDC line was cultured in 6C/Colon 1B media containing advanced DMEM/F-12 (Thermo Fisher Scientific, cat. 12634028), 10 mM HEPES (Thermo Fisher Scientific, cat. 15630080), 1X GlutaMAX supplement (Thermo Fisher Scientific, cat. 35050061), 0.1 mg/mL primocin (InvivoGen, San Diego, CA, cat. ant-pm-2), 10% defined fetal bovine serum, heat inactivated (HyClone Laboratories Inc., Logan, UT, cat. SH30070.03HI), 50% L-WRN conditioned media (ATCC, cat. CRL-3276), 1.25 mM N-Acetyl-L-cysteine (Sigma-Aldrich, cat. A9165), 10 mM nicotinamide (Sigma-Aldrich, cat. N0636), 1X B-27 supplement (Thermo Fisher Scientific, cat. 17504044), 1X N-2 supplement (Thermo Fisher Scientific, cat. […]

[1] = compound alone, run of 11/06/2023
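Note: spheroids exposed to the agents for one week.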
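Throughout, for viability, T/C: 100% = DMSO vehicle control wells.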

Row | SMILES | viability, T/C (compound 0.0316 µM) | viability, T/C (compound 0.1 µM) | viability, T/C (compound 0.316 µM) | viability, T/C (compound 1 µM) | viability, T/C (compound 3.16 µM) | viability, T/C (compound 10 µM) | IC50 (compound alone, run of 10/31/2023) [µM] | IC50 [1] [µM] | viability, T/C (compound 0.000316 µM) | viability, T/C (compound 0.001 µM) | viability, T/C (compound 0.00316 µM) | viability, T/C (compound 0.01 µM) | IC50 (curve of compound)
1 | Cc1cccc(N(C)C(=O)C2C(O)CCN2c2nc(C)cc(C(F)(F)F)c2C#N)c1 (stereo not given) | 102% [middle of 13 runs] | 101% [middle of 13 runs] | 103% [middle of 13 runs] | 103% [middle of 13 runs] | 103% [middle of 13 runs] | 105% [middle of 13 runs] | > 10 | > 10 | – | – | – | – | –
2 | Cn1ncnc1[C@H]1c2n[nH]c(=O)c3cc(F)cc(c23)N[C@@H]1c1ccc(F)cc1 | 94.3% and 98.1% and 96.2% | 79.3% and 83.4% and 61% | – | – | – | – | – | – | 93.8% and 97.3% and 106% | 88.3% and 96.2% and 93.8% | 94% and 101% and 93.7% | 103% and 100% and 109% | > 0.1 µM
3 | Nc1ccc(C#CCN(C(=O)Cc2ncc(C(F)(F)F)cc2C(F)(F)F)c2ccc(F)cc2)nn1 | 103% [middle of 13 runs] | 102% [middle of 12 runs] | 102% [middle of 13 runs] | 101% [middle of 13 runs] | 101% [middle of 13 runs] | 98% [middle of 13 runs] | – | > 10 | – | – | – | – | –
4 | Nc1ccn(C2OC(CO)C(O)C2(F)F)c(=O)n1 (stereo not given) | 13.5% and 24% and 10.2% | 9.54% and 19.8% and 10.8% | 11.1% and 19.8% and 8.64% | 12.2% and 17.1% and 9.88% | 9.68% and 23.8% and 9.1% | 8.4% and 22.9% and 7.7% | – | – | – | – | – | – | < 0.0316 µM
5 | O=C(Nc1ccc(O)c(NS(=O)(=O)c2ccc(F)cc2)c1)c1ccc(-c2ccccc2)cc1 | 108% and 103% and 104% | 106% and 103% and 91.7% | 104% and 99.2% and 89.1% | 99.6% and 101% and 99.3% | 108% and 105% and 96.4% | 112% and 101% and 90.3% | – | – | – | – | – | – | > 10 µM
6 | O=C(c1cc(Cc2n[nH]c(=O)c3ccccc23)ccc1F)N1CCN(C(=O)C2CC2)CC1 | 107% and 111% and 103% | 100% and 97.4% and 101% | 95.3% and 93.3% and 102% | 106% and 94% and 101% | 92% and 94% and 104% | 96.9% and 99.4% and 94.8% | – | – | – | – | – | – | > 10 µM
7 | O=c1[nH]cc(F)c(=O)[nH]1 | 92.3% and 104% and 112% | 105% and 101% and 99.1% | 95% and 101% and 95.6% | 101% and 105% and 99.3% | 30.5% and 79.5% and 27.9% | 14.8% and 24.6% and 17.6% | – | – | – | – | – | – | 2.27 µM and 5.89 µM and 2.21 µM

Reference: PubChem BioAssay AID1963830 (Molecular Pharmacology Branch, DTP, NCI, 2024)
